In general, IC50 refers to the concentration needed to halve the response being measured. A lower IC50 goes with higher potency.

The experiment deals with T1, HIF PHD2 (Homo sapiens, UniProt Q9GZT9).
T1 construct: FLAG-tagged full length PHD2; FLAG; made in house; host or cells: baculovirus-infected Sf9 cells
T1 sequence (Q9GZT9 whole entry): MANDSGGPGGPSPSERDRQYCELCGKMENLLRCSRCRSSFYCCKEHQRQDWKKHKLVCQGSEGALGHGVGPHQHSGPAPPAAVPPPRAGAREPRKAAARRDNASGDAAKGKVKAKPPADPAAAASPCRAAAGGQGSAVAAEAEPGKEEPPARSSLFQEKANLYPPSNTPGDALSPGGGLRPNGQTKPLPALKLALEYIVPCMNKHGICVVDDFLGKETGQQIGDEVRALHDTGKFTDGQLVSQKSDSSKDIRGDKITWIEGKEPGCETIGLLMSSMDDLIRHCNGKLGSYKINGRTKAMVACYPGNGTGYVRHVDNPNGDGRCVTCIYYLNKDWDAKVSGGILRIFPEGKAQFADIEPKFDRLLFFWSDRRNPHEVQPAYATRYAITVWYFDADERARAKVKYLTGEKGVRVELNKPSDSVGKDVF
The experiment is described as follows: PHD2 inhibition assay (time resolved fluorescence, HIF-1α peptide hydroxylation / VHL detection). It counts as biochemical. The conditions noted are these: FLAG-tagged full length PHD2; 0.2 μM 2-oxoglutarate, 0.5 μM HIF-1α peptide. As for the experimental part: To each well of a 96-well plate was added 1 μL of test compound in DMSO and 20 μl of assay buffer (50 mM Tris pH 7.4/0.01% Tween-20/0.1 mg/ml bovine serum albumin/10 μM ferrous sulfate/1 mM sodium ascorbate/20 μg/ml catalase) containing 0.15 μg/ml FLAG-tagged full length PHD2 expressed in and purified from baculovirus-infected Sf9 cells. After a 30 min preincubation at room temperature, the enzymatic reactions were initiated by the addition of 4 μL of substrates (final concentrations of 0.2 μM 2-oxoglutarate and 0.5 μM HIF-1α peptide biotinyl-DLDLEMLAPYIPMDDDFQL (SEQ ID NO:1)). After 2 hours at room temperature, the reactions were terminated and signals were developed by the addition of a 25 μL quench/detection mix to a final concentration of 1 mM ortho-phenanthroline, 0.1 mM EDTA, 0.5 nM anti-(His)6 LANCE reagent (Perkin-Elmer Life Sciences), 100 nM AF647-labeled streptavidin (Invitrogen), and 2 μg/ml (His)6-VHL complex (S. Tan (2001) Protein Expr. Purif. 21, 224-234). The ratio of time resolved fluorescence signals at 665 and 620 nm was determined; and percent inhibition was calculated relative to an uninhibited control sample run in parallel.
The compound `O=C(NCP(=O)(O)O)c1ncc(C(=O)NC(c2ccccc2)c2ccccc2)c(O)n1` [Compound 2-13, {[({5-[(diphenylmethyl)carbamoyl]-4-hydroxypyrimidin-2-yl}carbonyl)amino]methyl}phosphonicacid] showed an IC50 of 20 to 100 nM.
Consider `COc1ccc(C(NC(=O)c2cnc(C(=O)NCC(=O)O)nc2O)c2ccc(OC)cc2)cc1` [Compound 2-17, 2-(5-(bis(4-methoxyphenyl)methylcarbamoyl)-4-hydroxypyrimidine-2-carboxamido)acetic acid], for which the 50% inhibitory concentration (IC50) fell in the range of 0.5 to 20 nM.
`CCOP(=O)(CNC(=O)c1ncc(C(=O)NC(c2ccccc2)c2ccccc2)c(O)n1)OCC` [Compound 2-5, Diethyl {[({5-[(diphenylmethyl)carbamoyl]-4-hydroxypyrimidin-2-yl}carbonyl)amino]methyl}phosphonate] displayed an IC50 of 20 to 100 nM.
Compound `CCOC(=O)CCNC(=O)c1ncc(C(=O)NC(c2ccccc2)c2ccccc2)c(O)n1` [Compound 2-1, Ethyl N-({5-[(diphenylmethyl)carbamoyl]-4-hydroxypyrimidin-2-yl}carbonyl)-β-alaninate] yielded an IC50 of 0.5 to 20 nM.
In turn, `O=C(NCCS(=O)(=O)O)c1ncc(C(=O)NC(c2ccccc2)c2ccccc2)c(O)n1` [Compound 2-4, 2-[({5-[(diphenylmethyl)carbamoyl]-4-hydroxypyrimidin-2-yl}carbonyl)amino]ethanesulfonic acid] registered an IC50 of 0.5 to 20 nM.
In the case of `O=C(O)CNC(=O)c1ncc(C(=O)NCc2cccc3ccccc23)c(O)n1` [Compound 2-21, 2-(4-hydroxy-5-(naphthalen-1-ylmethylcarbamoyl)pyrimidine-2-carboxamido)acetic acid] it was 20 to 100 nM; in that of `O=C(O)CNC(=O)c1ncc(NC(=O)C(c2ccccc2)c2ccccc2)c(O)n1` [Compound 3-1, 2-(5-(2,2-Diphenylacetamido)-4-hydroxypyrimidine-2-carboxamido)acetic acid], 0.5 to 20 nM.
Compound `CCOC(=O)CNC(=O)c1ncc(C(=O)NCc2cccc3ccccc23)c(O)n1` [Compound 2-20, Ethyl-2-(4-hydroxy-5-(naphthalen-1-ylmethylcarbamoyl)pyrimidine-2-carboxamido)acetate] gave an IC50 of 100 to 10000 nM.
In turn, `COC(=O)CNC(=O)c1ncc(C(=O)NC(c2ccccc2)c2ccccc2)c(O)n1` [Compound 2-3, Methyl N-({5-[(diphenylmethyl)carbamoyl]-4-hydroxypyrimidin-2-yl}carbonyl)glycinate] returned an IC50 of 0.5 to 20 nM.
Take `O=C(O)CNC(=O)c1ncc(C(=O)NC(c2ccccc2)c2ccccc2)c(O)n1` [Compound 2-12, 2-(5-(benzhydrylcarbamoyl)-4-hydroxypyrimidine-2-carboxamido)acetic acid]: the IC50 was in the range of 0.5 to 20 nM.
Compound `CP(=O)(O)CNC(=O)c1ncc(C(=O)NC(c2ccccc2)c2ccccc2)c(O)n1` [Compound 2-14, {[({5-[(diphenylmethyl)carbamoyl]-4-hydroxypyrimidin-2-yl}carbonyl)amino]methyl}methylphosphinicacid] registered an IC50 of 0.5 to 20 nM.
`CCOC(=O)CNC(=O)c1ncc(C(=O)NC(c2ccc(F)cc2)c2ccc(F)cc2)c(O)n1` [Compound 2-18, Ethyl 2-(5-(bis(4-fluorophenyl)methylcarbamoyl)-4-hydroxypyrimidine-2-carboxamido)acetate] came in with an IC50 of 0.5 to 20 nM.
In turn, `O=C(O)CNC(=O)c1ncc(C(=O)NCc2ccc3ccccc3c2)c(O)n1` [Compound 2-22, N-({4-hydroxy-5-[(naphthalen-2-ylmethyl)carbamoyl]pyrimidin-2-yl}carbonyl)glycine] registered a half-maximal inhibitory concentration (IC50) of 20 to 100 nM.
In turn, `O=C(CNC(=O)c1ncc(C(=O)NC(c2ccccc2)c2ccccc2)c(O)n1)OCc1ccccc1` [Compound 2-7, Benzyl N-({5-[(diphenylmethyl)carbamoyl]-4-hydroxypyrimidin-2-yl}carbonyl)glycinate] gave an IC50 of 0.5 to 20 nM.
Consider `O=C(O)CCNC(=O)c1ncc(C(=O)NC(c2ccccc2)c2ccccc2)c(O)n1` [Compound 2-11, 3-(5-(benzhydrylcarbamoyl)-4-hydroxypyrimidine-2-carboxamido)propanoic acid], for which the IC50 lay in the range of 0.5 to 20 nM.
Next, `O=C(O)CNC(=O)c1ncc(C(=O)NC(c2ccc(F)cc2)c2ccc(F)cc2)c(O)n1` [Compound 2-19, 2-(5-(bis(4-fluorophenyl)methylcarbamoyl)-4-hydroxypyrimidine-2-carboxamido) acetic acid]: 0.5 to 20 nM.
Regarding `CCOC(=O)CNC(=O)c1ncc(C(=O)NC(c2ccccc2)c2ccccc2)c(O)n1` [Compound 2-2, Ethyl N-({5-[(diphenylmethyl)carbamoyl]-4-hydroxypyrimidin-2-yl}carbonyl)glycinate], the IC50 lay in the range of 0.5 to 20 nM.
Regarding `CP(=O)(O)c1cnn(-c2ncc(C(=O)NC(c3ccccc3)c3ccccc3)c(O)n2)c1` [Compound 1-1, 1-(5-(benzhydrylcarbamoyl)-4-hydroxypyrimidin-2-yl)-1H-pyrazol-4-yl(methyl)phosphinic acid], the IC50 was 0.5 to 20 nM.
In the case of `CCOP(C)(=O)CNC(=O)c1ncc(C(=O)NC(c2ccccc2)c2ccccc2)c(O)n1` (stereo not shown) [Compound 2-6, Ethyl {[({5-[(diphenylmethyl)carbamoyl]-4-hydroxypyrimidin-2-yl}carbonyl)amino]methyl}methylphosphinate] it was 0.5 to 20 nM.

(Values after US9034851B2, “Substituted pyrimidines” (MERCK SHARP & DOHME CORP., priority 2011, dated 2015).)
